Reference: BindingDB's records for doi:10.1016/j.bioorg.2017.01.007 (Panjab University, 2017)

Biological target: T1, Tyrosine-protein phosphatase non-receptor type 1 (Homo sapiens, UniProt P18031)
T1 sequence (P18031 whole entry): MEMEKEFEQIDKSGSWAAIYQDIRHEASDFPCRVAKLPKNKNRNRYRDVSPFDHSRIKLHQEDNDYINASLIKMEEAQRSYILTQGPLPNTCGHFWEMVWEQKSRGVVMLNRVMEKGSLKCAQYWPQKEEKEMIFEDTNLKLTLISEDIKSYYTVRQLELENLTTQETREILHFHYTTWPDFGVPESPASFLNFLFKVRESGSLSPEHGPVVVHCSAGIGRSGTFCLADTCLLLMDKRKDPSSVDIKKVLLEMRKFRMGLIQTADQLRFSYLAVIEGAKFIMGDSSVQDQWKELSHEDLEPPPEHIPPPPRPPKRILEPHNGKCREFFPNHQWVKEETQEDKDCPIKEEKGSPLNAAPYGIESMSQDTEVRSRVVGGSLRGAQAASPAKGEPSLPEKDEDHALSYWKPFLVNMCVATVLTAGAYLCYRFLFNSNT
Assay: In Vitro PTP1B Inhibition Assay
Method: 10 mM stock solution (in assay buffer containing 1% DMSO) of the test compounds were prepared. Taking suitable aliquots from this stock solution, five different concentrations were made by dilutions. […] A 96 well microtiter plate was used for carrying out the assay using 10 mM DMSO as control. The reaction was carried out in 96 well, flatbottomed microtiter plates at 10 mM concentration using DMSO as control.

| SMILES | IC50 [µM] |
| --- | --- |
| COc1cc(/C=C2\SC(=O)NC2=O)ccc1OS(=O)(=O)Cc1ccccc1 [(Z)-4-((2,4-dioxothiazolidin-5-ylidene)methyl)-2-methoxyphenyl phenylmethanesulfonate (20)] | 59.9 |
| COc1cc(/C=C2\SC(=O)NC2=O)ccc1OS(=O)(=O)c1c(C)cc(C)cc1C [(Z)-4-((2,4-dioxothiazolidin-5-ylidene)methyl)-2-methoxyphenyl-2,4,6-trimethylbenzenesulphonate (15)] | 26.9 |
| COc1cc(/C=C2\SC(=O)NC2=O)ccc1OS(=O)(=O)c1ccccc1[N+](=O)[O-] [(Z)-4-((2,4-dioxothiazolidin-5-ylidene)methyl)-2-methoxyphenyl-2-nitrobenzenesulfonate (19)] | 50.4 |
| COc1cc(/C=C2\SC(=O)NC2=O)ccc1OS(=O)(=O)c1ccc(Br)cc1 [(Z)-4-((2,4-dioxothiazolidin-5-ylidene)methyl)-2-methoxyphenyl-4-bromobenzenesulfonate (18)] | 21.8 |
| COc1cc(/C=C2\SC(=O)NC2=O)ccc1OS(=O)(=O)c1ccc(Cl)cc1 [(Z)-4-((2,4-dioxothiazolidin-5-ylidene)methyl)-2-methoxyphenyl-4-chlorobenzenesulfonate (17)] | 25.3 |
| COc1ccc(S(=O)(=O)Oc2ccc(/C=C3\SC(=O)NC3=O)cc2OC)cc1 [(Z)-4-((2,4-dioxothiazolidin-5-ylidene)methyl)-2-methoxyphenyl-4-methoxybenzene sulfonate (14)] | 28.2 |
| COc1cc(/C=C2\SC(=O)NC2=O)ccc1OS(=O)(=O)c1ccc(C)cc1 [(Z)-4-((2,4-dioxothiazolidin-5-ylidene)methyl)-2-methoxyphenyl-4-methylbenzenesulfonate (12)] | 19 |
| COc1cc(/C=C2\SC(=O)NC2=O)ccc1OS(=O)(=O)c1ccccc1 [(Z)-4-((2,4-dioxothiazolidin-5-ylidene)methyl)-2-methoxyphenylbenzenesulfonate (13)] | 7.31 |
| COc1cc(/C=C2\SC(=O)NC2=O)ccc1OS(C)(=O)=O [(Z)-4-((2,4-dioxothiazolidin-5-ylidene)methyl)-2-methoxyphenylmethane sulfonate (16)] | 8.73 |
| COc1cc(/C=C2\SC(=O)NC2=O)ccc1OS(=O)(=O)c1ccc2ccccc2c1 [(Z)-4-((2,4-dioxothiazolidin-5-ylidene)methyl)-2-methoxyphenylnaphthalene-2-sulfonate (21)] | 61.4 |
